Data as given in PubChem BioAssay AID1963831 (Molecular Pharmacology Branch, DTP, NCI, 2024).
pIC50: −log10 of the molar value.

Tested on: 889142-216-R-J1-PDC complex spheroid viability
Test: Anticancer human tumor 889142-216-R-J1-PDC patient-derived bladder carcinoma cell line growth inhibition [POLQ]
Settings: for pIC50: curve of first compound; for viability, T/C: stronger effect = lower value
How it was run: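 PDC + HUVEC + MSC complex spheroids; POLQ inhibitors ± partner drugs; top conc. at/near clinical Cmax, else 10 microM (SN-38 1 microM), half-log dilutions; 37 degrees C, 5% CO2.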

[1] = second compound 0.0316 µM, first compound 0.0316 µM
[2] = second compound 0.0316 µM, first compound 0.1 µM
[3] = second compound 0.0316 µM, first compound 0.316 µM
[4] = second compound 0.0316 µM, first compound 1 µM
[5] = second compound 0.0316 µM, first compound 3.16 µM
[6] = second compound 0.0316 µM, first compound 10 µM
[7] = second compound 0.1 µM, first compound 0.0316 µM
[8] = second compound 0.1 µM, first compound 0.1 µM
[9] = second compound 0.1 µM, first compound 0.316 µM
[10] = second compound 0.1 µM, first compound 1 µM
[11] = second compound 0.1 µM, first compound 3.16 µM
[12] = second compound 0.1 µM, first compound 10 µM
[13] = second compound 0.316 µM, first compound 0.0316 µM
[14] = second compound 0.316 µM, first compound 0.1 µM
[15] = second compound 0.316 µM, first compound 0.316 µM
[16] = second compound 0.316 µM, first compound 1 µM
[17] = second compound 0.316 µM, first compound 3.16 µM
[18] = second compound 0.316 µM, first compound 10 µM
[19] = second compound 1 µM, first compound 0.0316 µM
[20] = second compound 1 µM, first compound 0.1 µM
[21] = second compound 1 µM, first compound 0.316 µM
[22] = second compound 1 µM, first compound 1 µM
[23] = second compound 1 µM, first compound 3.16 µM
[24] = second compound 1 µM, first compound 10 µM
[25] = second compound 3.16 µM, first compound 0.0316 µM
[26] = second compound 3.16 µM, first compound 0.1 µM
[27] = second compound 3.16 µM, first compound 0.316 µM
[28] = second compound 3.16 µM, first compound 1 µM
[29] = second compound 3.16 µM, first compound 3.16 µM
[30] = second compound 3.16 µM, first compound 10 µM
[31] = second compound 10 µM, first compound 0.0316 µM
[32] = second compound 10 µM, first compound 0.1 µM
[33] = second compound 10 µM, first compound 0.316 µM
[34] = second compound 10 µM, first compound 1 µM
[35] = second compound 10 µM, first compound 3.16 µM
[36] = second compound 10 µM, first compound 10 µM
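Note: spheroids exposed to compounds for seven days.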
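Throughout, for viability, T/C: 100% = DMSO vehicle control viability.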

With `C=CC(=O)N1CCN(c2nc(=O)n(-c3c(C)ccnc3C(C)C)c3nc(-c4c(O)cccc4F)c(F)cc23)C(C)C1` (centres undefined) + COC1C(OC(N)=O)C(O)C(Oc2ccc3c(O)c(NC(=O)c4ccc(O)c(CC=C(C)C)c4)c(=O)oc3c2C)OC1(C)C the pIC50 (second compound 0.0316 µM) was < 5.00, the pIC50 (second compound 0.1 µM) was < 5.00 and the pIC50 (second compound 0.316 µM) was < 5.00. The pIC50 (second compound 1 µM) was < 5.00, the pIC50 (second compound 3.16 µM) was < 5.00 and the pIC50 (second compound 10 µM) was < 5.00. The viability, T/C [1] was 111%, the viability, T/C [2] was 114% and the viability, T/C [3] was 121%. For the same compound, the viability, T/C [4] was 111%, the viability, T/C [5] was 131% and the viability, T/C [6] was 88.7%. The viability, T/C [7] was 113%, the viability, T/C [8] was 116% and the viability, T/C [9] was 116%. The viability, T/C [10] was 146%, the viability, T/C [11] was 127% and the viability, T/C [12] was 82.4%. For the same compound, the viability, T/C [13] was 111%, the viability, T/C [14] was 133% and the viability, T/C [15] was 103%. For the same compound, the viability, T/C [16] was 125%, the viability, T/C [17] was 135% and the viability, T/C [18] was 78%. It also gave a viability, T/C [19] of 97.3%, a viability, T/C [20] of 123% and a viability, T/C [21] of 126%. It also gave a viability, T/C [22] of 109%, a viability, T/C [23] of 112% and a viability, T/C [24] of 103%. The viability, T/C [25] was 98.3%, the viability, T/C [26] was 124% and the viability, T/C [27] was 115%. The viability, T/C [28] was 132%, the viability, T/C [29] was 123% and the viability, T/C [30] was 82.7%. For the same compound, the viability, T/C [31] was 115%, the viability, T/C [32] was 102% and the viability, T/C [33] was 112%. The viability, T/C [34] was 113%, the viability, T/C [35] was 145% and the viability, T/C [36] was 85.3%.
Work on `CC1COCCN1c1cc(C2(O)CC3CCC(C2)O3)c2cnn(-c3ccn[nH]3)c2n1` (centres undefined) + COC1C(OC(N)=O)C(O)C(Oc2ccc3c(O)c(NC(=O)c4ccc(O)c(CC=C(C)C)c4)c(=O)oc3c2C)OC1(C)C yielded a pIC50 (second compound 0.0316 µM) of 6.90, a pIC50 (second compound 0.1 µM) of 6.88 and a pIC50 (second compound 0.316 µM) of 6.74. For the same compound, the pIC50 (second compound 1 µM) was 6.71, the pIC50 (second compound 3.16 µM) was 6.77 and the pIC50 (second compound 10 µM) was 7.03. The viability, T/C [1] was 64.3%, the viability, T/C [2] was 50.6% and the viability, T/C [3] was 40.6%. The viability, T/C [4] was 32.7%, the viability, T/C [5] was 26.2% and the viability, T/C [6] was 14.7%. For the same compound, the viability, T/C [7] was 69.9%, the viability, T/C [8] was 50.2% and the viability, T/C [9] was 38.6%. It also gave a viability, T/C [10] of 32.5%, a viability, T/C [11] of 27.5% and a viability, T/C [12] of 15.2%. It also gave a viability, T/C [13] of 66.4%, a viability, T/C [14] of 53.6% and a viability, T/C [15] of 40.2%. It also gave a viability, T/C [16] of 37.5%, a viability, T/C [17] of 33.3% and a viability, T/C [18] of 13.2%. The viability, T/C [19] was 77.4%, the viability, T/C [20] was 54.9% and the viability, T/C [21] was 42.4%. The viability, T/C [22] was 32.2%, the viability, T/C [23] was 29.5% and the viability, T/C [24] was 12.7%. It also gave a viability, T/C [25] of 64.3%, a viability, T/C [26] of 54.5% and a viability, T/C [27] of 40.5%. It also gave a viability, T/C [28] of 39.2%, a viability, T/C [29] of 25.2% and a viability, T/C [30] of 14.1%. For the same compound, the viability, T/C [31] was 65.2%, the viability, T/C [32] was 43.2% and the viability, T/C [33] was 39.2%. It also gave a viability, T/C [34] of 30.6%, a viability, T/C [35] of 30.1% and a viability, T/C [36] of 13.9%.
